Where “and” joins values, the source holds several entries; their conditions need not be identical. Equal entries are not always repeated. Where two headings read alike, the source gives them in different places.
Experiments:
SARS-CoV-2 = settings: for body weight loss kinetic: versus vehicle mice
Citrullinated histone H3 = settings: for effect on level of citrullinated histone H3 / NETosis: RNA virus infected mice, 3 mg/kg/day, versus infected vehicle group
[1] = system: neutrophils (DAPI-CD16+, DAPI-CD16+CXCR4-, DAPI-CD16+CXCR4+); settings: for % of neutrophils' migration decrease with plerixafor vs vehicle in response to COVID-19 serum: DAPI-CD16+CXCR4+ cells
Description: Neutrophils were isolated from 6 patients of the COBRA cohort (COPD and asthma patient cohort). […] Cells were next plated in the upper compartment of a modified Boyden chamber for migration assay in 0.2 mL HBSS, containing 0.5% HSA medium. HBSS, 0.5% HSA or HBSS, 0.5% HSA+sera (10% diluted) from severe COVID-19 patients were added to the bottom compartment of each well. […] Cell identities and counts were analysed by FACS method.
Neutrophils are isolated according to the method described by Hard, et al., (Infiltrated neutrophils acquire novel chemokine receptor expression and chemokine responsiveness in chronic inflammatory lung diseases. J. Immunol. Baltim. Md 1950. 181:8053-8067). Neutrophils were freshly isolated from blood of COPD patients over isotonic Percoll density gradient. The neutrophils were recovered, washed twice with HBSS containing 20 mM HEPES and 0.1% (w/v) BSA and resuspended in HBSS, 20 mM HEPES, and 0.1% (w/v) BSA at a cell concentration of 5×10^5 in 0.2 mL.
Neutrophil migration was assessed using a Boyden chamber assay, using transwell inserts (pore size 8 um). A total of 5x 10^5 neutrophils cells in 0.2 mL HBSS, containing 0.5% HSA were added to the upper compartment of each well. […] HBSS, 0.5% HSA and Sera (10% diluted) from severe COVID-19 patients was added to the bottom compartment of each well.
After neutrophils' recovery from lower chamber, FACS tubes were centrifuged 5 min, 4° C. at 500 g. Fixation and permeabilization of cells were as follow: 0.3 mL of Cytofix/Cytoperm were added for 15 min (tube are protected from light). Next, 400 μL of permeabilization buffer was added and cells were processed for centrifugation for 5 min, 4° C., 400 g. Supernatant was discarded, and cells were processed for antibody staining. Cells were incubated 40 min at 4° C. with anti-CD16 to account for all neutrophils, anti-CXCR4 to specifically account for CXCR4 expressing neutrophils. Next, 400 μL of permeabilization buffer was added, and cells were centrifuged 5 min at 4° C., 400 g. After supernatant was discarded, cells were incubated with appropriate secondary antibody for 40 min at 4° C. Finally, cells were incubated with DAPI at 4° C. After DAPI incubation (to exclude dying cells from FACS counts), 400 μL of PBS 1× were added and cells were centrifuged for 5 min at 4° C., 400 g. Cells were resuspended in 300 μL of PBS 1×. To obtain absolute values of migratory cells, flow cytometric counts for each condition were obtained during a constant predetermined time period (1 min).
Each condition treatment was run in duplicate.

severe COVID-19 patients = settings: estimate for sample size
Excerpt: Sample size is based on the following assumptions: • 1. Current estimate of the proportion of patients in ICU with critical stage COVID-19 and requiring mechanical ventilation (50% as per Bichat and Bordeaux CHUs), • 2. […] A two-sided analysis, with α=0.05.

[2] = system: COVID-19-related ARDS patients; settings: hypothesis; in combination with best available treatment
Description: Ventilator-free days (VFDs) at 28 days are one of several organ failure-free outcome measures to quantify the efficacy of therapies and interventions. VFDs are typically defined as follows: • a. VFDs=0 if subject dies within 28 days of mechanical ventilation. • b. VFDs=28−x if successfully liberated from ventilation x days after initiation. • c. VFDs=0 if the subject is mechanically ventilated for >28 days.
4 groups of patients (placebo, pleri 10, pleri 20, pleri 40 μg/kg bid) will be planned.

ARDS patients = settings: at days 28; cited from earlier work

c1cc(CN2CCCNCCNCCCNCC2)ccc1CN1CCCNCCNCCCNCC1 [plerixafor]
body weight loss kinetic (SARS-CoV-2; 10 mg/kg/day): reduced the mice body weight loss kinetic | body weight loss kinetic (SARS-CoV-2; 10 mg/kg/day, listed as Plerixafor): significant reduction of body weight loss kinetic | time of death (euthanasia at body weight loss superior to 20%) (SARS-CoV-2; 10 mg/kg/day, versus vehicle, Wilcoxon test p<0.05): Significant difference in time of death | average body weight loss (SARS-CoV-2; day 5 post infection, 10 mg/kg/day twice daily, vehicle 20.43%±2.88%): 17.6%±1.28% | fraction of treated mice with improved survival (SARS-CoV-2; lethal dose of SARS-CoV-2): 44,44% | improvement of survival (SARS-CoV-2; lethal dose of SARS-CoV-2, versus vehicle): 20% | effect on level of citrullinated histone H3 / NETosis (Citrullinated histone H3): significantly reduced | effect on level of citrullinated histone H3 / NETosis (Citrullinated histone H3; listed as Plerixafor): slightly decreased | Mean Citrullinated Histone H3 in plasma (Citrullinated histone H3; day 7, RNA virus infected, 3 mg/kg/day SC, infected vehicle 2.124, non infected 0.113): 1.428±0.799 absorbance at 450 nm and 1.428 absorbance at 450 nm | decrease of CXCR4+ neutrophils migration (mean of 6 patients) [1]: 75.8%±5.9% | migration of CXCR4 negative neutrophils (DAPI-CD16+CXCR4-) [1]: no significant effect | migration of CXCR4 positive neutrophils (DAPI-CD16+CXCR4+) [1]: strongly and reproducibly decreased | serum-induced recruitment of neutrophils total population (DAPI-CD16+) [1]: did not significantly reduce | % of neutrophils' migration decrease with plerixafor vs vehicle in response to COVID-19 serum ([1]; patient Sg3, 25 μg/mL): 86.6% | % of neutrophils' migration decrease with plerixafor vs vehicle in response to COVID-19 serum ([1]; patient Sg87, 25 μg/mL): 72.9% | % of neutrophils' migration decrease with plerixafor vs vehicle in response to COVID-19 serum ([1]; patient Sg88, 25 μg/mL): 75.5% | % of neutrophils' migration decrease with plerixafor vs vehicle in response to COVID-19 serum ([1]; patient Sg89, 25 μg/mL): 70.0% | % of neutrophils' migration decrease with plerixafor vs vehicle in response to COVID-19 serum ([1]; patient Sg92, 25 μg/mL): 77.6% | % of neutrophils' migration decrease with plerixafor vs vehicle in response to COVID-19 serum ([1]; patient Sg95, 25 μg/mL): 72.4% | decrease of proportion of invasive mechanical ventilation versus placebo (severe COVID-19 patients): 46% | proportion of invasive mechanical ventilation in patients with severe COVID-19 (severe COVID-19 patients; reduced from 50%, 30 μg/kg/hour continuous IV 7 days): 27% | increase of VFDs (ventilator-free days at 28 days) [2]: 2 days

Tocilizumab: an anti-IL6 human monoclonal antibody marketed by Genentech under the tradename Actemra for treating rheumatoid arthritis
VFDs (ventilator-free days) (ARDS patients): 14.86+/−5.36
